Measurements reported in US5652366A, “DI (1R)-(-)camphosulfonic acid) salt, preparation thereof and use thereof” (Rhone-Poulenc Rorer Pharmaceuticals Inc., priority 1995, dated 1997).
Where two headings read alike, the source gives them in different places.

Legend:
swine coronary arteries = test: In vitro vasorelaxation in isolated swine coronary arteries (PGF2α-contracted rings); type: cell-based; conditions: Sus scrofa; for EC50: Table II; for IC50: read-out: Vasorelaxation (IC50)
Method: Swine coronary arteries were obtained from a local slaughter house, dissected carefully and cleaned of fat, blood and adhering tissue. Rings approximately 2-3 mm wide were cut and transferred to water-jacketed tissue baths (10 ml) filled with warm (37° C.), oxygenated (O2 /CO2 :95%/5%) Krebs-Henseleit buffer and mounted on L-shaped hooks between stainless steel rods and a force transducer. […] Rings were equilibrated for 90 minutes with frequent buffer changes at a resting tension of 5 g In order to assure optimal tension development, arterial rings were primed twice with 36 mM KCl and once with 10 μm. PGF2α, before being exposed to 3 μM PGF2α. […] Tension achieved with 3 μM PGF2α was considered .equivalent to 100%; all other values were expressed as a percentage of that maximum.

[1] = tested on: normotensive anesthetized rat; test: In vivo mean arterial pressure and heart rate in normotensive anesthetized rat; conditions: iv
Method: Normotensive rats were anesthetized with sodium pentobarbital (50 mg/kg, j.p.) and placed on a heated surgical table. Cannulas were inserted into the femoral artery and […] to allow the measurement of arterial pressure and to facilitate the intravenous administration of test compounds. The animals was allowed to equilibrate for 10 minutes after surgery. Mean arterial pressure was continuously measured and recorded and heart rate was monitored using the arterial pressure pulse to trigger a cardiotachometer. After baseline parameters were established and recorded, increasing doses (1, 3, 10, 30, 100, 300 and 1000 μg/kg) of the compound of the invention to be tested were administered intravenously. Maximal changes in the cardiovascular parameters were observed after each dose of the adenosine agonist. Only one compound was administered per rat.

rat adipocytes = test: In vitro lipolysis assay in rat adipocytes (glycerol production); type: cell-based; conditions: for inhibition at 0.1 µM / EC50 / inhibition at 1 µM: Rattus norvegicus, Adipocyte; for inhibition at 0.1 µM / inhibition at 1 µM: read-out: % Inhibition of glycerol production; for EC50: read-out: EC50 (50% inhibition of glycerol production)
Method: Adipose tissue is removed from anesthetized rats and rinsed twice in incubation medium (2.09 g sodium bicarbonate and 0.04 g EDTA, disodium salt, in 1 L Krebs buffer). Each rat (300-350 g) yields approximately 4 ml of adipose tissue. The adipose tissue (35 ml) is cut into small pieces with scissors and washed with incubation medium (50 ml). The mixture is poured into the barrel of a 50 ml syringe to which is attached a short piece of clamped tubing instead of a needle. The aqueous phase is allowed to drain. A second wash with incubation medium is passed through the syringe. The tissue is added to 50 ml of collagenase solution (collagenase(90 mg), bovine serum albumin (BSA) (500 mg), and 0.1 M calcium chloride solution (1 ml), in incubation medium (50 ml)) in a 1 L bottle. The mixture is shaken in an environmental at 37° C. for about 60 minutes under an atmosphere of 95% oxygen/5% carbon dioxide to effect digestion of the tissue. The dispersed cells are poured through 2 layers of cheese cloth into a 100 ml plastic beaker. The undigested clumps in the cloth are rinsed once with incubation medium (20 ml). The cells in the beaker are centrifuged in 2 plastic tubes for 30 seconds at room temperature at 300 rpm. The aqueous phase is aspirated from beneath the loosely packed layer of floating fat cells and discarded. The adipocytes are gently poured into a 250 ml plastic beaker containing 100 ml of rinse solution (1 g BSA per 100 ml incubation medium). After gentle stirring the centrifugation step is repeated. Another wash with rinse solution follows. The cells are pooled and their volume is estimated with a graduated cylinder. The adipocytes are diluted in twice their volume of assay buffer (incubation medium (120 ml), BSA (1.2 g), pyruvic acid (13 mg)).
The assay is performed in 20 ml plastic scintillation vials and the total assay volume is 4.2 ml. Assay buffer (2.5 ml), diluted adipocytes (1.5 ml), and a solution of the compound to be tested (12.3 μL) adenosine agonist (12.3 μl; varying concentration) is incubated in the environmental shaker for 15 minutes, then the reaction is started with norepinephrine solution (41.2 μL) (10 nM, in a carrier solution containing water (100 ml), BSA (4 mg), and 0.1 M EDTA (20 I. LL))and adenosine deaminase (1 μg/ml, 41.2 μl). After sixty minutes in the shaker the reaction is terminated by putting the vials on ice. […] The hard lipid layer is removed by aspiration and the aqueous layer is assayed for glycerol (400 μl of sample). The positive control is done in the absence of any adenosine agonist, substituting water in place of the solution to be tested.

[2] = 50% reduction in tension, 3 μM PGF2α, read-out: Vasorelaxation in Swine Coronary Artery/IC50
[3] = read-out: Vasorelaxation in Swine Coronary Artery/IC50 (μM), 50% reduction in tension, 3 μM PGF2α
[4] = dose lowering heart rate by 25%, read-out: Blood Press/Heart Rate Anesthetized Rat HR/ED25
[5] = dose lowering mean arterial pressure by 25%, read-out: Blood Press/Heart Rate Anesthetized Rat MAP/ED25
[6] = 0.1 μM, versus positive control

## CCNC(=O)[C@H]1C[C@@H](n2cnc3c(NC(CC)Cc4sccc4Cl)ccnc32)[C@H](O)[C@@H]1O (stereo partly drawn) [Example 37, [1S-[1α,2β,3β,4α]]-4-[7-[[2-(3-chloro-2-thienyl)-1-ethylethyl]amino]-3 H-imidazo[4,5-b]pyridin-3-yl]-N-ethyl-2,3-dihydroxycyclopentane-carboxamide]
Swine coronary arteries; [2]
  EC50: 0.45 µM

## CCNC(=O)[C@H]1C[C@@H](n2cnc3c(N[C@H](C)Cc4ccc(Cl)s4)ncnc32)[C@H](OC(=O)OC)[C@@H]1OC(=O)OC [Example 42, (2S)-2α,3α-bis-methoxycarbonyloxy-4β-[N6-[2-(5-chloro-2-thienyl)-(1R)-1-methylethyl]amino-9-adenyl]cyclopentane-1β-N-ethylcarboxamide]
Swine coronary arteries; [3]
  EC50: 2.44 µM

## CCNC(=O)[C@H]1C[C@@H](n2cnc3c(N[C@H](C)Cc4ccc(Cl)s4)ncnc32)[C@H](OC(=O)NC)[C@@H]1OC(=O)NC [Example 45, (2S)-2α,3α-bis-methylcarbamoyloxy-4β-[N6-[2-(5-chloro-2-thienyl)-(1R)-1-methylethyl]amino-9-adenyl]cyclopentane-1β-N-ethylcarboxamide]
Swine coronary arteries; [2]
  EC50: 4.1 µM

## CCNC(=O)[C@H]1C[C@@H](n2cnc3c(NC(Cc4cccs4)C(C)C)ccnc32)[C@H](O)[C@@H]1O (stereo partly drawn) [Example 38, [1S-[1α,2β,3β,4α]]-4-[7-[[2-(2-thienyl)-1-isopropylethyl]amino]-3 H-imidazo[4,5-b]pyridin-3-yl]-N-ethyl-2,3-dihydroxycyclopentanecarboxamide]
Swine coronary arteries; [2]
  EC50: 0.47 µM

## CCNC(=O)[C@H]1C[C@@H](n2cnc3c(NCCc4cccs4)ccnc32)[C@H](O)[C@@H]1O (relative stereo) [Example 30, (±)-N6-[1-(thiopheny-2-yl)ethan-2-yl]-N'-1-deazaaristeromycin-5'-N-ethyl carboxamide]
[1]; [4]
  ED25: > 0.01 mg/kg
[1]; [5]
  ED25: 0.006 mg/kg
Swine coronary arteries; [3]
  EC50: 12.1 µM

## CCNC(=O)[C@H]1C[C@@H](n2cnc3c(N[C@H](CC)Cc4ccc(Cl)s4)ccnc32)[C@H](O)[C@@H]1O [Example 41, [1S-[1α,2β,3β,4α]]-4-[7-[[2-(5-chloro-2-thienyl)-1-ethylethyl]amino]-3 H-imidazo[4,5-b]pyridin-3-yl]-N-ethyl-2,3-dihydroxycyclopentane-carboxamide]
Rat adipocytes; [6]
  inhibition at 0.1 µM: 88%

## CO[C@@H]1[C@H](O)[C@@H](CO)O[C@H]1n1cnc2c(N[C@H](C)Cc3ccc(Cl)s3)ncnc21 [Example 48, N^6-[2-(5-chloro-2-thienyl)-(1R)-1-methylethyl]-2'-O-methyladenosine]
Rat adipocytes
  EC50: 1.86 nM
Rat adipocytes; [6]
  inhibition at 0.1 µM: 88%

## CCNC(=O)[C@H]1C[C@@H](n2cnc3c(NCCc4nccs4)ncnc32)[C@H](O)[C@@H]1O (relative stereo) [Example 25, (±)-N^6-[2-(2"-thiazolyl)ethyl]-carbocyclic adenosine-5'-N-ethyl carboxamide]
Swine coronary arteries; [2]
  EC50: 0.64 µM

## OC[C@H]1O[C@@H](n2cnc3c(N[C@@H]4CC=CC[C@H]4c4ccsc4)ncnc32)[C@H](O)[C@@H]1O (relative stereo) [Example 8, N^6-[trans-2-(thiophen-3-yl)-cyclohex-4-en-1-yl]adenosine]
[1]; [4]
  ED25: 0.023 mg/kg
[1]; [5]
  ED25: 0.01 mg/kg

## CCNC(=O)[C@H]1C[C@@H](n2cnc3c(N[C@H](C)Cc4ccc(Cl)s4)[n+]([O-])cnc32)[C@H](O)[C@@H]1O [Example 35, (2S)-2α,3α-dihydroxy-4β-[N6-[2-(5-chloro-2-thienyl)-(1R)-1-methylethyl]amino-9-adenyl]cyclopentane-1β-N-ethylcarboxamide-N^1-oxide]
Swine coronary arteries; [2]
  EC50: 3.3 µM

## C[C@H](Cc1ccccc1)Nc1ncnc2c1ncn2[C@@H]1O[C@H](CO)[C@@H](O)[C@H]1O [R-PIA, R-phenylisopropyladenosine, reference compound]
Rat adipocytes
  EC50: 1 nM
Swine coronary arteries
  IC50: 760 nM

## CCNC(=O)[C@H]1C[C@@H](n2cnc3c(N[C@H](C)Cc4ccc(Cl)s4)ncnc32)[C@@H]2OC(OCC)O[C@@H]21 (stereo partly drawn) [Example 43, (2S)-2α,3α-dihydroxy-4β-[N6-[2-(5-chloro-2-thienyl)-(1R)-1-methylethyl]amino-9-adenyl]cyclopentane-1β-N-ethylcarboxamide ethoxymethylene acetal]
Swine coronary arteries; [3]
  EC50: 7.83 µM

## CCNC(=O)[C@H]1C[C@@H](n2cnc3c(N[C@H](C)Cc4cccs4)ccnc32)[C@H](O)[C@@H]1O [Example 40, [1S-[1α,2β,3β,4α(S*)]]-4-[7-[[2-(2-thienyl)-1-methylethyl]amino]-3 H-imidazo[4,5-b]pyridin-3-yl]-N-ethyl-2,3-dihydroxycyclopentane-carboxamide]
Swine coronary arteries; [2]
  EC50: 0.283 µM

## CCNC(=O)[C@H]1O[C@@H](n2cnc3c(N)ncnc32)[C@H](O)[C@@H]1O [NECA, N-ethylcarboxamidoadenosine, reference compound]
Rat adipocytes
  EC50: 2.5 nM

## CCNC(=O)[C@H]1O[C@@H](n2cnc3c(N)nc(NCCc4ccc(CCC(=O)O)cc4)nc32)[C@H](O)[C@@H]1O [CGS21680, reference compound]
Rat adipocytes
  inhibition at 1 µM: 0%
Rat adipocytes; in words
  antilipolytic activity: do not exhibit antilipolytic activity
Swine coronary arteries
  IC50: 80 nM

## CO[C@@H]1[C@H](O)[C@@H](CO)O[C@H]1n1cnc2c(N[C@@H]3CC=CC[C@H]3c3cccs3)ncnc21 (relative stereo) [Example 49, N^6-[trans-5-(2-thienyl)cyclohex-1-en-4-yl]-2'-O-methyladenosine]
Rat adipocytes
  EC50: 18.6 nM
Rat adipocytes; [6]
  inhibition at 0.1 µM: 85%
Swine coronary arteries; [3]
  EC50: 9.81 µM

## CO[C@@H]1[C@H](O)[C@@H](CO)O[C@H]1n1cnc2c(N[C@H](C)Cc3sccc3Cl)ncnc21 [Example 47, N^6-[2-(3-chloro-2-thienyl)-(1R)-1-methylethyl]-2'-O-methyladenosine]
Rat adipocytes; unit nM in cell
  EC50: 0.63 nM
Rat adipocytes; [6]
  inhibition at 0.1 µM: 94%
Swine coronary arteries; [2]
  EC50: 5.7 µM

## CCNC(=O)[C@H]1O[C@@H](n2cnc3c(NC4CC=CCC4c4cccs4)ncnc32)[C@H](O)[C@@H]1O (single isomer, unassigned) [Example 5, N6-[trans-2-(thiophen-2-yl)cyclohex-4-en-l-yl]adenosine-5'-N-ethylcarboxamide]
Swine coronary arteries; [3]
  EC50: 0.068 µM

## OC[C@H]1O[C@@H](n2cnc3c(NC4CCCC4)ncnc32)[C@H](O)[C@@H]1O [CPA, N-cyclopentyladenosine, reference compound]
Rat adipocytes
  inhibition at 0.1 µM: 97%
  inhibition at 1 µM: 100%
  EC50: 0.31 nM
Swine coronary arteries
  IC50: 3180 nM

## CCNC(=O)[C@H]1C[C@@H](n2cnc3c(N[C@H](C)Cc4ccc(Cl)s4)ncnc32)[C@@H]2OC(=S)O[C@@H]21 [Example 46, (2S)-2α,3α-dihydroxy-4β-[N6-[2-(5-chloro-2-thienyl)-(1R)-1-methylethyl]amino-9-adenyl]cyclopentane-1β-N-ethylcarboxamide-2,3-thiocarbonate]
Rat adipocytes; unit nM in cell
  EC50: 4 nM
Swine coronary arteries; [3]
  EC50: 3.52 µM
